In series [1] the test system is Non-small cell Lung cancer cell NCI-H460. The series can be described thus: Preliminary cytotoxicity test. Format: cell-based, human.
A further series deals with CNS cancer cell SF-268. Kind of series: Preliminary cytotoxicity test. In kind it is cell-based, human.
The subject of a further series is Breast cancer cell MCF-7. Kind of series: Preliminary cytotoxicity test. Format: cell-based, human.
For another series, the system named is Hepa: human hepatoma. The series can be described thus: In vitro anticancer assay (cytotoxicity), human solid tumor cells. The following applies: for IC50: Homo sapiens, HepA, read-out: IC50 Values of Cytotoxicities, Hepa.
Series [2] relates to Hela: human cervix epitheloid carcinoma. The series is described as above. The following applies: for IC50: Homo sapiens, HeLa, read-out: IC50 Values of Cytotoxicities, Hela.
The subject of series [3] is NCI (NCI-H661): human lung large cell carcinoma. The description is as above. The following applies: for IC50: Homo sapiens, NCI-H661, read-out: IC50 Values of Cytotoxicities, NCI; for IC50 Values of Cytotoxicities, NCI: NCI (NCI-H661).
The test system of series [4] is KB: human oral epidermoid carcinoma. The description is as above. The following applies: for IC50: Homo sapiens, read-out: IC50 Values of Cytotoxicities, KB.
The next series concerns the target T1, topoisomerase I (Homo sapiens, UniProt P11387).
T1 sequence (P11387 1-765): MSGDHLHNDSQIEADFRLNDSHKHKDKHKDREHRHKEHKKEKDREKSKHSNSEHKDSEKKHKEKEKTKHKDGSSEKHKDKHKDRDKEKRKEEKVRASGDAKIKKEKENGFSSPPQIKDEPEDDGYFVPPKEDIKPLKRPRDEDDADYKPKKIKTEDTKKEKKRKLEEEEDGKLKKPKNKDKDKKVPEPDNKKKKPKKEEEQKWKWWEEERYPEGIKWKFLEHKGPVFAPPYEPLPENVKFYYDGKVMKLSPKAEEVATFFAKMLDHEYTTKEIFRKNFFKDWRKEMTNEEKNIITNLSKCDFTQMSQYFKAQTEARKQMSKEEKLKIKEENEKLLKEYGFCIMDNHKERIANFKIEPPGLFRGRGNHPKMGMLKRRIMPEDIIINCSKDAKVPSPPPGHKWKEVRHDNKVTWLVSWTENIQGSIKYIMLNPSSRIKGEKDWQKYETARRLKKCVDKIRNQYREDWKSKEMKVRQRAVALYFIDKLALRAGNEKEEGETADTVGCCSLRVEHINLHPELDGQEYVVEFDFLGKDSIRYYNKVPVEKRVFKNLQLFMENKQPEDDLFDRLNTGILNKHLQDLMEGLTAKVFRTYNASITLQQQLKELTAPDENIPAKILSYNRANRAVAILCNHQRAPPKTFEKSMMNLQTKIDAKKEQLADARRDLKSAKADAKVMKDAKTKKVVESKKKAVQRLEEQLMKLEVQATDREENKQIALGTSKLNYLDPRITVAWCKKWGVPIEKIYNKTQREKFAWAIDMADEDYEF
The series can be described thus: Topoisomerase I course assay, cleavage of supercoiled pGEM9zf(−) DNA, gel electrophoresis. Format: biochemical. The following applies: for topo I inhibitor, overall finding: no concentration stated.

The subject of series [5] is DLD (DLD-1): human colon adenocarcinoma. Kind of series: In vitro anticancer assay (cytotoxicity), human solid tumor cells. The following applies: for IC50: Homo sapiens, DLD-1, read-out: IC50 Values of Cytotoxicities, DLD.

Converted amounts (≈) assume the structure as drawn. Some results are limits rather than exact numbers.

The term IC50 denotes the point on the concentration scale where inhibition reaches its midpoint.

“2-(6-(2-xylenyl)-3-hexen-1,5-diyne)benzonitrile [Compound 24]”: in [1], the “Growth percentage, Non-small cell Lung cancer cell NCI-H460” value was determined as 129%. Moreover, the “Growth percentage, CNS cancer cell SF-268” value in the series with CNS cancer cell SF-268 is listed as 111%. For the same molecule, the “Growth percentage, Breast cancer cell MCF-7” value in the series on Breast cancer cell MCF-7 was determined as 101%.

In the case of `CCCCCCC#C/C=C\C#Cc1ccc(C#C/C=C\C#CCCCCCC)cc1` [Compound 11, 1,4-Bis-(3-(Z)-Dodecen-1,5-diynyl)benzene], the 50% inhibitory concentration (IC50) (in the series on Hepa: human hepatoma; in series [2]; in series [3]; in [4]; in series [5]) was over 20 µg/mL in each case. The “inhibition of topo I” value at topoisomerase I (8.7 μM compound) and against topoisomerase I (87 μM compound) was “No supercoiled DNA was observed” in each case. The “topo I inhibitor, overall finding” value on topoisomerase I is reported as “not topo I inhibitors”.

Regarding `N#Cc1ccccc1C#Cc1ccccc1C#CCCCOC1CCCCO1` (stereo not drawn) [Compound 8], the “IC50 Values of Cytotoxicities, Hepa” value in the series on Hepa: human hepatoma was “— (“—” means IC50 >20 μg/ml)”. Moreover, in [2], the “IC50 Values of Cytotoxicities, Hela” value is “— (“—” means IC50 >20 μg/ml)”. Also, the “IC50 Values of Cytotoxicities, NCI” value in series [3] was “— (“—” means IC50 >20 μg/ml)”. The “IC50 Values of Cytotoxicities, KB” value in [4] is listed as “— (“—” means IC50 >20 μg/ml)”. The “IC50 Values of Cytotoxicities, DLD” value in series [5] turned out to be 11.65 µg/mL.

Consider `CCCCCCC#C/C=C\C#Cc1cnccn1` [Compound 17, 2-(3-(Z)-Dodecen-1,5-diynyl)pyrazine], for which the IC50 worked out at 12.3 µg/mL (≈ 51.8 µM) with Hepa: human hepatoma; 5.3 µg/mL (≈ 22.2 µM) in series [2]; 9.43 µg/mL (≈ 39.6 µM) in [3]; 5.93 µg/mL (≈ 24.9 µM) in series [4]; 3.89 µg/mL (≈ 16.3 µM) in series [5].

As to `CCCCCCC#C/C=C\C#Cc1cccs1` [Compound 16, 2-(3-(Z)-Dodecen-1,5-diynyl)thiophene], the concentration for half-maximal inhibition (IC50) is over 20 µg/mL in the series with Hepa: human hepatoma; over 20 µg/mL in series [2]; over 20 µg/mL in [3]; over 20 µg/mL in series [4]; 6.75 µg/mL (≈ 27.8 µM) in [5].

In the case of `CCCCCCC#C/C=C\C#Cc1ccccc1C(=O)O` [Compound 22, 2-(3-(Z)-Dodecen-1,5-diynyl)benzoate], in the series with Hepa: human hepatoma, the “IC50 Values of Cytotoxicities, Hepa” value was “— (“—” means IC50 >20 μg/ml)”. Besides, the “IC50 Values of Cytotoxicities, Hela” value in series [2] is given as “— (“—” means IC50 >20 μg/ml)”. The “IC50 Values of Cytotoxicities, NCI” value in [3] is “— (“—” means IC50 >20 μg/ml)”. In series [4], the “IC50 Values of Cytotoxicities, KB” value is “— (“—” means IC50 >20 μg/ml)”. Further, the “IC50 Values of Cytotoxicities, DLD” value in [5] amounted to 7.27 µg/mL.

In the case of `CCCCC#C/C=C\C#Cc1ccccc1` [Compound 6, (3Z)-Decen-1,5-diynylbenzene], the 50% inhibitory concentration (IC50) with Hepa: human hepatoma is over 20 µg/mL; in series [2], over 20 µg/mL; in [3] it was 7.35 µg/mL (≈ 35.3 µM); in [4], 14.4 µg/mL (≈ 69.3 µM); in series [5], over 20 µg/mL. In addition, the “topo I inhibitor, overall finding” value on topoisomerase I was “not Topo I inhibitors”.

With `CCCCCC#Cc1ccccc1C#Cc1ccccc1C#N` [Compound 10, 2-(2-(2-Heptynylphenyl)ethynyl)benzonitrile], the “IC50 Values of Cytotoxicities, Hepa” value in the series with Hepa: human hepatoma was 5.13 µg/mL. Further, the “IC50 Values of Cytotoxicities, Hela” value in series [2] is reported as “— (“—” means IC50 >20 μg/ml)”. In addition, the “IC50 Values of Cytotoxicities, NCI” value in series [3] came to 9.22 µg/mL. For the same molecule, the “IC50 Values of Cytotoxicities, KB” value in series [4] is on record as “— (“—” means IC50 >20 μg/ml)”. Further, the “inhibition of topo I” value is given as “no inhibition of topo I” at topoisomerase I (0.87 μM compound), “displayed inhibitory activity against topo I” on topoisomerase I (8.7 μM compound) and “displayed inhibitory activity against topo I” against topoisomerase I (87 μM compound). In addition, in series [5], the “IC50 Values of Cytotoxicities, DLD” value turned out to be 16.25 µg/mL.

In the case of `CC[C@@]1(O)C(=O)OCc2c1cc1n(c2=O)Cc2cc3ccccc3nc2-1` [camptothecin, reference compound], the “inhibition of topo I” value at topoisomerase I (26.1 μM) is “less topo I inhibitory activity”; against topoisomerase I (43.5 μM), “observable inhibition of topo I”.

Regarding `CCCCCCC#C/C=C\C#Cc1ccccn1` [Compound 15, 2-(3-(Z)-Dodecen-1,5-diynyl)pyridine], the concentration for half-maximal inhibition (IC50) in the series with Hepa: human hepatoma was over 20 µg/mL; in series [2], over 20 µg/mL; in series [3], over 20 µg/mL; in series [4] it was over 20 µg/mL; in series [5], 5.15 µg/mL (≈ 21.7 µM).

Take `CCCCC#Cc1ccccc1C#Cc1ccccc1C#N` [Compound 9, 2-(2-(2-Hexynylphenyl)ethynyl)benzonitrile]: in the series with Hepa: human hepatoma, the “IC50 Values of Cytotoxicities, Hepa” value is “— (“—” means IC50 >20 μg/ml)”. For the same molecule, the “IC50 Values of Cytotoxicities, Hela” value in series [2] was “— (“—” means IC50 >20 μg/ml)”. Further, the “IC50 Values of Cytotoxicities, NCI” value in [3] is “— (“—” means IC50 >20 μg/ml)”. Besides, the “IC50 Values of Cytotoxicities, KB” value in [4] is on record as “— (“—” means IC50 >20 μg/ml)”. Further, the “inhibition of topo I” value against topoisomerase I (0.87 μM compound) is recorded as “no supercoiled DNA observed”; against topoisomerase I (8.7 μM compound), “no supercoiled DNA observed”; against topoisomerase I (87 μM compound), “showed restraint of topo I”. The “IC50 Values of Cytotoxicities, DLD” value in series [5] came to 8.98 µg/mL.

Consider `CCCCCCC#C/C=C\C#Cc1ccc(C(F)(F)F)cc1` [Compound 18, 4-(3-(Z)-Dodecen-1,5-diynyl)trifluoromethylbenzene], for which the “IC50 Values of Cytotoxicities, Hepa” value with Hepa: human hepatoma is 17.08 µg/mL. The “IC50 Values of Cytotoxicities, Hela” value in [2] was 5.86 µg/mL. The “IC50 Values of Cytotoxicities, NCI” value in [3] stood at 11.15 µg/mL. The “IC50 Values of Cytotoxicities, KB” value in series [4] stood at 4.32 µg/mL. At topoisomerase I (87 μM compound), the “inhibition of topo I” value is listed as “displayed inhibitory activities of topo I”. Moreover, the “IC50 Values of Cytotoxicities, DLD” value in series [5] was 5.71 µg/mL.

With `CCCCCCC#C/C=C\C#Cc1ccc([N+](=O)[O-])cc1` [Compound 21, 4-nitro-1-(3-(Z)-dodecen-1,5-diynyl)benzene], the IC50 was over 20 µg/mL with Hepa: human hepatoma; over 20 µg/mL in series [2]; over 20 µg/mL in series [3]; 13 µg/mL (≈ 46.2 µM) in series [4]; 1.66 µg/mL (≈ 5.9 µM) in series [5].

Take `N#Cc1ccccc1C#Cc1ccccc1C#CCOC1CCCCO1` (stereo not drawn) [Compound 7, 2-(2-(3-Tetrahydro-pyranyl-5-oxy-1-propynylphenyl)ethynyl)benzonitrile]: the “IC50 Values of Cytotoxicities, Hepa” value in the series on Hepa: human hepatoma was “— (“—” means IC50 >20 μg/ml)”. For the same molecule, the “IC50 Values of Cytotoxicities, Hela” value in [2] was “— (“—” means IC50 >20 μg/ml)”. For the same molecule, the “IC50 Values of Cytotoxicities, NCI” value in series [3] is given as “— (“—” means IC50 >20 μg/ml)”. In [4], the “IC50 Values of Cytotoxicities, KB” value is “— (“—” means IC50 >20 μg/ml)”. Also, the “IC50 Values of Cytotoxicities, DLD” value in series [5] was “— (“—” means IC50 >20 μg/ml)”.

As for `CCCCCCC#C/C=C\C#Cc1ccc(-c2ccc(C#C/C=C\C#CCCCCCC)cc2)cc1` [Compound 12, 4,4′-Bis-(3-(Z)-Dodecen-1,5-diynyl)biphenyl], the 50% inhibitory concentration (IC50) with Hepa: human hepatoma is over 20 µg/mL; in series [2] it was over 20 µg/mL; in series [3] it was over 20 µg/mL; in series [4] it was 5.57 µg/mL (≈ 11.8 µM); in series [5], over 20 µg/mL. Besides, the “inhibition of topo I” value against topoisomerase I (8.7 μM compound) and on topoisomerase I (87 μM compound) was “No supercoiled DNA was observed” each time. The “topo I inhibitor, overall finding” value at topoisomerase I is “not topo I inhibitors”.

Turning to `CCCCCCC#C/C=C\C#Cc1ccc(C#N)cc1` [Compound 14, 4-(3-(Z)-Dodecen-1,5-diynyl)benzonitrile], the IC50 in the series on Hepa: human hepatoma is over 20 µg/mL; in [2], over 20 µg/mL; in series [3] it was over 20 µg/mL; in series [4], over 20 µg/mL; in series [5], 11.9 µg/mL (≈ 45.6 µM).

As for `CCCCCCC#C/C=C\C#Cc1ccccc1C(F)(F)F` [Compound 20, 2-(3-(Z)-Dodecen-1,5-diynyl)trifluoromethylbenzene], the “IC50 Values of Cytotoxicities, Hepa” value with Hepa: human hepatoma amounted to 12.24 µg/mL. For the same molecule, in [2], the “IC50 Values of Cytotoxicities, Hela” value is 2.15 µg/mL. Moreover, in series [3], the “IC50 Values of Cytotoxicities, NCI” value came to 5.02 µg/mL. Besides, in [4], the “IC50 Values of Cytotoxicities, KB” value amounted to 19.65 µg/mL. Moreover, the “IC50 Values of Cytotoxicities, DLD” value in series [5] turned out to be 8.91 µg/mL.

For `CCCCCCC#C/C=C\C#Cc1cccc(C(F)(F)F)c1` [Compound 19, 3-(3-(Z)-Dodecen-1,5-diynyl)trifluoromethylbenzene], the “IC50 Values of Cytotoxicities, Hepa” value in the series on Hepa: human hepatoma came out at 14.39 µg/mL. Moreover, the “IC50 Values of Cytotoxicities, Hela” value in series [2] was “— (“—” means IC50 >20 μg/ml)”. Further, the “IC50 Values of Cytotoxicities, NCI” value in series [3] is 7.73 µg/mL. The “IC50 Values of Cytotoxicities, KB” value in [4] came to 6.74 µg/mL. Besides, in series [5], the “IC50 Values of Cytotoxicities, DLD” value is 7.05 µg/mL.
